According to the supplement of paper PMC10307832:

Assays:
Experiment in all cases: relative viability (nuclei count vs DMSO), 5 days (fraction); higher = more cells survive
[1] = compound: CN(C)C[C@@H]1CCn2cc(c3ccccc32)C2=C(C(=O)NC2=O)c2cn(c3ccccc23)CCO1 [Ruboxistaurin] + CC(C)C[C@H](NC(=O)[C@H](Cc1ccccc1)NC(=O)c1cnccn1)B(O)O [Bortezomib] (partner 0.002 µM)
Outline: (§1)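 The day after seeding in 1536-well plates, lung cancer cell lines were treated by pin tool with a single drug, or with a fixed anchor-drug dose together with five library-drug doses (not always all listed) in √10 steps. After 5 days, a combined fix-and-stain solution (final 0.05% Triton X-100, 1% formaldehyde, 1 ug/ml Hoechst) was added. Nuclei counted on 4× images gave relative viability as treated counts over vehicle counts, reported as the median of duplicate plates.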

[2] = compound: CN(C)C[C@@H]1CCn2cc(c3ccccc32)C2=C(C(=O)NC2=O)c2cn(c3ccccc23)CCO1 [Ruboxistaurin] + CCNC(=O)c1noc(-c2cc(C(C)C)c(O)cc2O)c1-c1ccc(CN2CCOCC2)cc1 [Luminespib] (partner 0.01 µM)
Outline: as §1

[3] = compound: CN(C)C[C@@H]1CCn2cc(c3ccccc32)C2=C(C(=O)NC2=O)c2cn(c3ccccc23)CCO1 [Ruboxistaurin] + COc1cc2c(Oc3ccc(NC(=O)C4(C(=O)Nc5ccc(F)cc5)CC4)cc3F)ccnc2cc1OCCCN1CCOCC1 [Foretinib] (partner 0.25 µM)
Outline: as §1

[4] = compound: CN(C)C[C@@H]1CCn2cc(c3ccccc32)C2=C(C(=O)NC2=O)c2cn(c3ccccc23)CCO1 [Ruboxistaurin] + Cc1cc(Nc2cc(N3CCN(C)CC3)nc(Sc3ccc(NC(=O)C4CC4)cc3)n2)n[nH]1 [Tozasertib] (partner 0.1 µM)
Outline: as §1

[5] = compound: CN(C)C[C@@H]1CCn2cc(c3ccccc32)C2=C(C(=O)NC2=O)c2cn(c3ccccc23)CCO1 [Ruboxistaurin] + O=C(CCCCCCC(=O)Nc1ccccc1)NO [Vorinostat] (partner 1 µM)
Outline: as §1

Cell Line | relative viability ([1]; first compound 0.08 µM) | relative viability ([1]; first compound 0.8 µM) | relative viability ([1]; first compound 2.53 µM) | relative viability ([1]; first compound 8 µM) | relative viability ([2]; first compound 0.08 µM) | relative viability ([2]; first compound 0.8 µM) | relative viability ([2]; first compound 2.53 µM) | relative viability ([2]; first compound 8 µM) | relative viability ([3]; first compound 0.08 µM) | relative viability ([3]; first compound 0.8 µM) | relative viability ([3]; first compound 2.53 µM) | relative viability ([3]; first compound 8 µM) | relative viability ([4]; first compound 0.08 µM) | relative viability ([4]; first compound 0.8 µM) | relative viability ([4]; first compound 2.53 µM) | relative viability ([4]; first compound 8 µM) | relative viability ([5]; first compound 0.08 µM) | relative viability ([5]; first compound 0.8 µM) | relative viability ([5]; first compound 2.53 µM) | relative viability ([5]; first compound 8 µM)
HARA | 1.22 | 1.04 | 1.15 | 0.465 | 0.612 | 0.495 | 0.837 | 0.601 | 0.842 | 0.865 | 0.993 | 0.813 | 0.0939 | 0.101 | 0.12 | 0.102 | 0.724 | 0.494 | 0.535 | 0.546
HCC-15 | 1.09 | 1.01 | 1.14 | 1.2 | 0.278 | 0.329 | 0.32 | 0.716 | 1.1 | 0.927 | 1.12 | 1.09 | 0.461 | 0.255 | 0.297 | 0.188 | 0.975 | 0.74 | 0.925 | 0.833
HCC-44 | 0.956 | 0.868 | 0.983 | 0.969 | 1.16 | 0.973 | 1.06 | 1.09 | – | – | – | – | 1.05 | 0.919 | 1.1 | 1.09 | 1.04 | 1.04 | 1.1 | 1.23
HCC-78 | 0.711 | 0.427 | 0.618 | 0.397 | – | – | – | – | 0.553 | 0.593 | 0.546 | 0.528 | 0.368 | 0.352 | 0.321 | 0.393 | 0.419 | 0.368 | 0.425 | 0.475
